From article PMC7265341, “Quantifying CDK inhibitor selectivity in live cells” (Nature Communications, 2020)

Tests used:
Conditions in all cases: 10µM
CDK1/Cyclin E1 = CDK1/Cyclin E1 (Homo sapiens, UniProt P06493); assay: NanoBRET live-cell target engagement, CDK1-NanoLuc/Cyclin E1 in HEK-293; assay type: binding
CDK2/Cyclin E1 = CDK2/Cyclin E1 (Homo sapiens, UniProt P24941); assay: NanoBRET live-cell target engagement, CDK2-NanoLuc/Cyclin E1 in HEK-293; assay type: binding
CDK3/Cyclin E1 = CDK3/Cyclin E1 (Homo sapiens, UniProt Q00526); assay: NanoBRET live-cell target engagement, CDK3-NanoLuc/Cyclin E1 in HEK-293; assay type: binding
CDK4/Cyclin D1 = CDK4/Cyclin D1 (Homo sapiens, UniProt P11802); assay: NanoBRET live-cell target engagement, NanoLuc-CDK4/Cyclin D1 in HEK-293; assay type: binding
CDK5/CDK5R1 = CDK5/CDK5R1 (Homo sapiens, UniProt Q00535); assay: NanoBRET live-cell target engagement, CDK5-NanoLuc/CDK5R1 in HEK-293; assay type: binding
CDK6/Cyclin D1 = CDK6/Cyclin D1 (Homo sapiens, UniProt Q00534); assay: NanoBRET live-cell target engagement, NanoLuc-CDK6/Cyclin D1 in HEK-293; assay type: binding
CDK7 = CDK7 (Homo sapiens, UniProt P50613); assay: NanoBRET live-cell target engagement, NanoLuc-CDK7 in HEK-293; assay type: binding
CDK8/Cyclin C = CDK8/Cyclin C (Homo sapiens, UniProt P49336); assay: NanoBRET live-cell target engagement, NanoLuc-CDK8/Cyclin C in HEK-293; assay type: binding
CDK9/Cyclin K = CDK9/Cyclin K (Homo sapiens, UniProt P50750); assay: NanoBRET live-cell target engagement, NanoLuc-CDK9/Cyclin K in HEK-293; assay type: binding
CDK11A/Cyclin L2 = target: T1, CDK11A/Cyclin L2 (Homo sapiens, UniProt Q9UQ88); assay: NanoBRET live-cell target engagement, CDK11A-NanoLuc/Cyclin L2 in HEK-293; assay type: binding
T1 sequence (Q9UQ88 1-783): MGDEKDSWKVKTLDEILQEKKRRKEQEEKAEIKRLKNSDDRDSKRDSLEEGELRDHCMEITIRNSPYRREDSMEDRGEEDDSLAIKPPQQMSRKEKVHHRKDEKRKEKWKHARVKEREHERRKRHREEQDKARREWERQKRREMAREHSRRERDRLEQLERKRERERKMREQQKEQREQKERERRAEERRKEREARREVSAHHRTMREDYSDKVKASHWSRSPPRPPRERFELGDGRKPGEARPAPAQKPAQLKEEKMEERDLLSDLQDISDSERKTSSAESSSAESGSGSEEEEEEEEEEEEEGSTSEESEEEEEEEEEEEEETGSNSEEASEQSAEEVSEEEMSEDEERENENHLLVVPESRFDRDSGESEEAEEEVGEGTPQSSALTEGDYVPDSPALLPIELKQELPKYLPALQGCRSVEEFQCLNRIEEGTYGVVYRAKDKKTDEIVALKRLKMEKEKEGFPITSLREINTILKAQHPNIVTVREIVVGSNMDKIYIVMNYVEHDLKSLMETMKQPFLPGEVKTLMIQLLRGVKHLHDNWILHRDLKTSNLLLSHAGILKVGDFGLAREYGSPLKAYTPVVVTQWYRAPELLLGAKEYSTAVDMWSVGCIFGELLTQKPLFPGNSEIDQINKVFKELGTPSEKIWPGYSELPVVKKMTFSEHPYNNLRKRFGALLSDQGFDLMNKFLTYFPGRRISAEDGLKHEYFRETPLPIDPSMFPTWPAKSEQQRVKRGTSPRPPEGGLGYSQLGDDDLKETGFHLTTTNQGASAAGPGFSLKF

CDK11B/Cyclin L2 = CDK11B/Cyclin L2 (Homo sapiens, UniProt P21127); assay: NanoBRET live-cell target engagement, CDK11B-NanoLuc/Cyclin L2 in HEK-293; assay type: binding
CDK12/Cyclin K = CDK12/Cyclin K (Homo sapiens, UniProt Q9NYV4); assay: NanoBRET live-cell target engagement, CDK12-NanoLuc/Cyclin K in HEK-293; assay type: binding
CDK13/Cyclin K = CDK13/Cyclin K (Homo sapiens, UniProt Q14004); assay: NanoBRET live-cell target engagement, CDK13-NanoLuc/Cyclin K in HEK-293; assay type: binding
CDK14/Cyclin Y = CDK14/Cyclin Y (Homo sapiens, UniProt O94921); assay: NanoBRET live-cell target engagement, CDK14-NanoLuc/Cyclin Y in HEK-293; assay type: binding
CDK15/Cyclin Y = CDK15/Cyclin Y (Homo sapiens, UniProt Q96Q40); assay: NanoBRET live-cell target engagement, NanoLuc-CDK15/Cyclin Y in HEK-293; assay type: binding
CDK16/Cyclin Y = CDK16/Cyclin Y (Homo sapiens, UniProt Q00536); assay: NanoBRET live-cell target engagement, CDK16-NanoLuc/Cyclin Y in HEK-293; assay type: binding
CDK17/Cyclin Y = CDK17/Cyclin Y (Homo sapiens, UniProt Q00537); assay: NanoBRET live-cell target engagement, CDK17-NanoLuc/Cyclin Y in HEK-293; assay type: binding
CDK18/Cyclin Y = CDK18/Cyclin Y (Homo sapiens, UniProt Q07002); assay: NanoBRET live-cell target engagement, CDK18-NanoLuc/Cyclin Y in HEK-293; assay type: binding
CDK20/Cyclin H = CDK20/Cyclin H (Homo sapiens, UniProt Q8IZL9); assay: NanoBRET live-cell target engagement, NanoLuc-CDK20/Cyclin H in HEK-293; assay type: binding
CDK19/Cyclin C = CDK19/Cyclin C (Homo sapiens, UniProt Q9BWU1); assay: NanoBRET live-cell target engagement, NanoLuc-CDK19/Cyclin C in HEK-293
CDK10/Cyclin L2 = CDK10/Cyclin L2 (Homo sapiens, UniProt Q15131); assay: NanoBRET live-cell target engagement, CDK10-NanoLuc/Cyclin L2 in HEK-293
Sequence of CDK10/Cyclin L2 (Q15131 whole entry): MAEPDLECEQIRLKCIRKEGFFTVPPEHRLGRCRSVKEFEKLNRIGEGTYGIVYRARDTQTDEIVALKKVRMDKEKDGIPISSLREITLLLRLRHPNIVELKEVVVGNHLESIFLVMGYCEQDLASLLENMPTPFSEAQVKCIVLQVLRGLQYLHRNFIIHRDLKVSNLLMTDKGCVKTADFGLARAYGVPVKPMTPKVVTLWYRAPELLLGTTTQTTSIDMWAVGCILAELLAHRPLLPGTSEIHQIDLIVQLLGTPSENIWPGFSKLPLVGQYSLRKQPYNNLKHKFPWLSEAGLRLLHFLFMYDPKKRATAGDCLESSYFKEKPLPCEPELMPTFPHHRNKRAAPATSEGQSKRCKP

Sequence of CDK6/Cyclin D1 (Q00534 whole entry): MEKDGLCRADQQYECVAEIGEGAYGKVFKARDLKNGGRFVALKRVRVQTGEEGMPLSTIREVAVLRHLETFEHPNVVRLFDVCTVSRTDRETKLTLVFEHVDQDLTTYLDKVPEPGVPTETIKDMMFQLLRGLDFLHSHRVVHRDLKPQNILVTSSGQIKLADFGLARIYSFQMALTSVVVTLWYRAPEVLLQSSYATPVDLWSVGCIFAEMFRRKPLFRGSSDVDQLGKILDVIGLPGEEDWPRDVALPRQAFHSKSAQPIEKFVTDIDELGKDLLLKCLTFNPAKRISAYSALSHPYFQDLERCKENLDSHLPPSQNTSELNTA
Sequence of CDK6/Cyclin D1 (P24385 whole entry partner): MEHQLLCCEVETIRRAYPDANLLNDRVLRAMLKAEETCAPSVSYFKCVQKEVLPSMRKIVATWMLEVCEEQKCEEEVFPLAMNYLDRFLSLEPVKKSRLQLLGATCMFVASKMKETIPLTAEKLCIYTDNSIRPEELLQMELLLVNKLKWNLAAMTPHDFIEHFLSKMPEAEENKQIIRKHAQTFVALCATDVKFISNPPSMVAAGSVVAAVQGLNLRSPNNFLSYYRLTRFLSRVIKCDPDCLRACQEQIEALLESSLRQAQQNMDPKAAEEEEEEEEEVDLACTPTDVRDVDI
Sequence of CDK13/Cyclin K (O75909 whole entry): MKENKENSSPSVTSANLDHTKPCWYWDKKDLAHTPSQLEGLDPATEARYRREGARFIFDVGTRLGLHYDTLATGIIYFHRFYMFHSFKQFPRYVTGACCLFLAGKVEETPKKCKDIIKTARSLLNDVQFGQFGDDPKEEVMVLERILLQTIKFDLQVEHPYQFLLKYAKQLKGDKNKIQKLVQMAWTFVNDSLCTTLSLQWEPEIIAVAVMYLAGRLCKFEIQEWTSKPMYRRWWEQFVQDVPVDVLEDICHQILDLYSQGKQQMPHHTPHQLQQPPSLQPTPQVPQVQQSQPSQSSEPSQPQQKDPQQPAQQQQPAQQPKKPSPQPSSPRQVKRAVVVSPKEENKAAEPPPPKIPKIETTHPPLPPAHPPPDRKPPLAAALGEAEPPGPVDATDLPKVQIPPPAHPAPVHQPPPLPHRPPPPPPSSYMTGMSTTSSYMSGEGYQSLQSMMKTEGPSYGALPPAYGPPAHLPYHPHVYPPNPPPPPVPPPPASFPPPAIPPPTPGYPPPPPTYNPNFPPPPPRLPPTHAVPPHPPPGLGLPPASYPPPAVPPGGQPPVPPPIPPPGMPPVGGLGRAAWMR
Sequence of CDK13/Cyclin K (Q14004 other isoform, or with tags, fused parts or gaps): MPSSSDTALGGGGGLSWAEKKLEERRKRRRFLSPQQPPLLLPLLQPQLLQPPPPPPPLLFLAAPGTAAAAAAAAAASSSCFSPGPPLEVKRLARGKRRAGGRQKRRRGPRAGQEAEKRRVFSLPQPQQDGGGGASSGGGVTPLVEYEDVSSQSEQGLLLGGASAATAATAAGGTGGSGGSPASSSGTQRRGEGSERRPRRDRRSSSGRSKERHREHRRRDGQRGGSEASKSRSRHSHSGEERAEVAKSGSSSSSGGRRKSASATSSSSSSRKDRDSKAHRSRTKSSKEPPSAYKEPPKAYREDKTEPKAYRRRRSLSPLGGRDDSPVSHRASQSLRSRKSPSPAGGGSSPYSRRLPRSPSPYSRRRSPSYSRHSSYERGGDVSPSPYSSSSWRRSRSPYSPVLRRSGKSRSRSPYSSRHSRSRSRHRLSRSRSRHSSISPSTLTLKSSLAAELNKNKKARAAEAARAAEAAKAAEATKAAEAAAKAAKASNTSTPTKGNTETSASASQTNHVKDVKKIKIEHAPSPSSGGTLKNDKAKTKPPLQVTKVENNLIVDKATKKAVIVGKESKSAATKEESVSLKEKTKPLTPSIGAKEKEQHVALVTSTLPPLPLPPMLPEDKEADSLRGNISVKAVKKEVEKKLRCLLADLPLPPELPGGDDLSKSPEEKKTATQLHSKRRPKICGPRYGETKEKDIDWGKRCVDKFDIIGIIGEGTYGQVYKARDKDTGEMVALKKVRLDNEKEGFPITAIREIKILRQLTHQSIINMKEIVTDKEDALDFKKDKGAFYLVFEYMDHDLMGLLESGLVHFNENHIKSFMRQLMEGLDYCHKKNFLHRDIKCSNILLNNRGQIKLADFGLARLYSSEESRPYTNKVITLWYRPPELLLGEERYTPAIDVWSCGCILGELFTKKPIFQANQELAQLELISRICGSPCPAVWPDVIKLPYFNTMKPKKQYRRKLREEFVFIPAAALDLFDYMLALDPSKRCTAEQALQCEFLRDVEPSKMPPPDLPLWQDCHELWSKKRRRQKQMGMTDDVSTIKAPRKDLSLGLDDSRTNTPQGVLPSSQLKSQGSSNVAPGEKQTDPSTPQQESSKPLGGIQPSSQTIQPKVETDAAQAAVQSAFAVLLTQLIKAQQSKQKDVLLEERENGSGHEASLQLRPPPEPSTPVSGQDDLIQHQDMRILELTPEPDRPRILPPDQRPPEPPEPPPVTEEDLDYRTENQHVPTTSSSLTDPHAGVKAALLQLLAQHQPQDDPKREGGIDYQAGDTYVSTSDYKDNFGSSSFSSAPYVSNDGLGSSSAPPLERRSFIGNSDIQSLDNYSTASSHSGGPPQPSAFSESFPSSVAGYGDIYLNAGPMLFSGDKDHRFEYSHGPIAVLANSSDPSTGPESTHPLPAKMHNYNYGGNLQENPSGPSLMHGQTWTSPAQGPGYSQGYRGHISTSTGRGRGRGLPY
Sequence of CDK5/CDK5R1 (Q00535 whole entry): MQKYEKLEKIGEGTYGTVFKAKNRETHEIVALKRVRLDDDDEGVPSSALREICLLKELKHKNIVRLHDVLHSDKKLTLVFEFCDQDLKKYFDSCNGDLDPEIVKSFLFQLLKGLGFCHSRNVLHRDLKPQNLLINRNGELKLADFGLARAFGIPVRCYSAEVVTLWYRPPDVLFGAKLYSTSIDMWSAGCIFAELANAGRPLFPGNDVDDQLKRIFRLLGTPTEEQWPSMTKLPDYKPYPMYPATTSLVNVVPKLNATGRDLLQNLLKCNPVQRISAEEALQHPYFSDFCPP
Sequence of CDK5/CDK5R1 (Q15078 whole entry partner): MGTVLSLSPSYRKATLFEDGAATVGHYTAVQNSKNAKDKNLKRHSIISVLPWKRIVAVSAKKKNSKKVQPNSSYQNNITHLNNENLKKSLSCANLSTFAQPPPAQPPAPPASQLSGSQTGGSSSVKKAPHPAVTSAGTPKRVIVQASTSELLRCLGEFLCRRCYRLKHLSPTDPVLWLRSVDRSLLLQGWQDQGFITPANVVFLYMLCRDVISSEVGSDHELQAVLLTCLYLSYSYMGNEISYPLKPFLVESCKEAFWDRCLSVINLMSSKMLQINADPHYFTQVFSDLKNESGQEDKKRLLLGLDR
Sequence of CDK1/Cyclin E1 (P06493 whole entry): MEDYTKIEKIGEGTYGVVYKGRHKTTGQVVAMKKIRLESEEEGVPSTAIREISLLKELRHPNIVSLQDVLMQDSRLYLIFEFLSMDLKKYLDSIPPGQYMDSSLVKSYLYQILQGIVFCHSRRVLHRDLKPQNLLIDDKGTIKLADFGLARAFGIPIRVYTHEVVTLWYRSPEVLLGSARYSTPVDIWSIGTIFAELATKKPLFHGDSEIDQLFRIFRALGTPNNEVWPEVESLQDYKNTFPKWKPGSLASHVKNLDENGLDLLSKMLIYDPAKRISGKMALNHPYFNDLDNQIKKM
Sequence of CDK1/Cyclin E1 (P24864 whole entry partner): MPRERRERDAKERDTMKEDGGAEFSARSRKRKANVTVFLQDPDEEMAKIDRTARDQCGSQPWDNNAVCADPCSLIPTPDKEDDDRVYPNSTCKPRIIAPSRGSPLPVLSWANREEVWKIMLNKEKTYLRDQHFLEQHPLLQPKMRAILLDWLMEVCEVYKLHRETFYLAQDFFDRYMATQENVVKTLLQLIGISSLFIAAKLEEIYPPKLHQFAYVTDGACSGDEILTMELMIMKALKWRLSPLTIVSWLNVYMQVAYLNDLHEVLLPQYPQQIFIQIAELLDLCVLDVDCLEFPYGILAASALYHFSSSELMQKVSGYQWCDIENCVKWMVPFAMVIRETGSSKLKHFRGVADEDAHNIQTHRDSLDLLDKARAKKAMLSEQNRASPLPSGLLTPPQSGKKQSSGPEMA
Sequence of CDK9/Cyclin K (P50750 whole entry): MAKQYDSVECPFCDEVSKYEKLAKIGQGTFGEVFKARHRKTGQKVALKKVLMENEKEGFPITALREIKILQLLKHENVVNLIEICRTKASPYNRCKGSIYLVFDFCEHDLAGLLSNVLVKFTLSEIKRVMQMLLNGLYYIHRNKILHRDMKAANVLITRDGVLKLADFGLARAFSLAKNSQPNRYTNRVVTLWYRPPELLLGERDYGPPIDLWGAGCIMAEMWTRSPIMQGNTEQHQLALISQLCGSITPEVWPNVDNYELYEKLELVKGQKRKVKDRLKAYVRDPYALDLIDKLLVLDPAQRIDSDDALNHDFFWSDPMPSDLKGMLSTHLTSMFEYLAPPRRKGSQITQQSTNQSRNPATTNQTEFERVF
Sequence of CDK9/Cyclin K (O75909 whole entry partner): as the sequence (O75909 whole entry) above

SMILES: O=C1NCCc2[nH]c(-c3ccncc3)cc21 [PHA-767491]
- CDK1/E1 Inhibition at 10µM (%) (CDK1/Cyclin E1; average of experiments): 20.9%
- CDK1/E1 Inhibition at 10µM (%) (CDK1/Cyclin E1; independent experiment 1): 21.6%
- CDK1/E1 Inhibition at 10µM (%) (CDK1/Cyclin E1; independent experiment 2): 20.1%
- CDK2/E1 Inhibition at 10µM (%) (CDK2/Cyclin E1; average of experiments): 26.7%
- CDK2/E1 Inhibition at 10µM (%) (CDK2/Cyclin E1; independent experiment 1): 26.7%
- CDK2/E1 Inhibition at 10µM (%) (CDK2/Cyclin E1; independent experiment 2): 26.6%
- CDK3/E1 Inhibition at 10µM (%) (CDK3/Cyclin E1; average of experiments): 31.6%
- CDK3/E1 Inhibition at 10µM (%) (CDK3/Cyclin E1; independent experiment 1): 30.4%
- CDK3/E1 Inhibition at 10µM (%) (CDK3/Cyclin E1; independent experiment 2): 32.8%
- CDK4/D1 Inhibition at 10µM (%) (CDK4/Cyclin D1; average of experiments): 21.3%
- CDK4/D1 Inhibition at 10µM (%) (CDK4/Cyclin D1; independent experiment 1): 22.1%
- CDK4/D1 Inhibition at 10µM (%) (CDK4/Cyclin D1; independent experiment 2): 20.6%
- CDK5/CDK5R1 Inhibition at 10µM (%) (CDK5/CDK5R1; average of experiments): 37.1%
- CDK5/CDK5R1 Inhibition at 10µM (%) (CDK5/CDK5R1; independent experiment 1): 38.6%
- CDK5/CDK5R1 Inhibition at 10µM (%) (CDK5/CDK5R1; independent experiment 2): 35.7%
- CDK6/D1 Inhibition at 10µM (%) (CDK6/Cyclin D1; average of experiments): 19.5%
- CDK6/D1 Inhibition at 10µM (%) (CDK6/Cyclin D1; independent experiment 1): 12.0%
- CDK6/D1 Inhibition at 10µM (%) (CDK6/Cyclin D1; independent experiment 2): 27.0%
- CDK7 Inhibition at 10µM (%) (CDK7; average of experiments): 26.3%
- CDK7 Inhibition at 10µM (%) (CDK7; independent experiment 1): 26.2%
- CDK7 Inhibition at 10µM (%) (CDK7; independent experiment 2): 26.4%
- CDK8/C Inhibition at 10µM (%) (CDK8/Cyclin C; average of experiments): 97.7%
- CDK8/C Inhibition at 10µM (%) (CDK8/Cyclin C; independent experiment 1): 98.5%
- CDK8/C Inhibition at 10µM (%) (CDK8/Cyclin C; independent experiment 2): 96.9%
- CDK9/K Inhibition at 10µM (%) (CDK9/Cyclin K; average of experiments): 95.5%
- CDK9/K Inhibition at 10µM (%) (CDK9/Cyclin K; independent experiment 1): 96.2%
- CDK9/K Inhibition at 10µM (%) (CDK9/Cyclin K; independent experiment 2): 94.7%
- CDK11a/L2 Inhibition at 10µM (%) (CDK11A/Cyclin L2; average of experiments): 24.0%
- CDK11a/L2 Inhibition at 10µM (%) (CDK11A/Cyclin L2; independent experiment 1): 26.5%
- CDK11a/L2 Inhibition at 10µM (%) (CDK11A/Cyclin L2; independent experiment 2): 21.5%
- CDK11b/L2 Inhibition at 10µM (%) (CDK11B/Cyclin L2; average of experiments): 42.2%
- CDK11b/L2 Inhibition at 10µM (%) (CDK11B/Cyclin L2; independent experiment 1): 43.3%
- CDK11b/L2 Inhibition at 10µM (%) (CDK11B/Cyclin L2; independent experiment 2): 41.0%
- CDK12/K Inhibition at 10µM (%) (CDK12/Cyclin K; average of experiments): 18.3%
- CDK12/K Inhibition at 10µM (%) (CDK12/Cyclin K; independent experiment 1): 19.8%
- CDK12/K Inhibition at 10µM (%) (CDK12/Cyclin K; independent experiment 2): 16.8%
- CDK13/K Inhibition at 10µM (%) (CDK13/Cyclin K; average of experiments): 11.6%
- CDK13/K Inhibition at 10µM (%) (CDK13/Cyclin K; independent experiment 1): 14.1%
- CDK13/K Inhibition at 10µM (%) (CDK13/Cyclin K; independent experiment 2): 9.2%
- CDK14/Y Inhibition at 10µM (%) (CDK14/Cyclin Y; average of experiments): 13.9%
- CDK14/Y Inhibition at 10µM (%) (CDK14/Cyclin Y; independent experiment 1): 16.7%
- CDK14/Y Inhibition at 10µM (%) (CDK14/Cyclin Y; independent experiment 2): 11.1%
- CDK15/Y Inhibition at 10µM (%) (CDK15/Cyclin Y; average of experiments): -2.1%
- CDK15/Y Inhibition at 10µM (%) (CDK15/Cyclin Y; independent experiment 1): 6.2%
- CDK15/Y Inhibition at 10µM (%) (CDK15/Cyclin Y; independent experiment 2): -10.5%
- CDK16/Y Inhibition at 10µM (%) (CDK16/Cyclin Y; independent experiment 1): 25.1%
- CDK16/Y Inhibition at 10µM (%) (CDK16/Cyclin Y; independent experiment 2): 16.6%
- CDK17/Y Inhibition at 10µM (%) (CDK17/Cyclin Y; average of experiments): 24.8%
- CDK17/Y Inhibition at 10µM (%) (CDK17/Cyclin Y; independent experiment 1): 31.6%
- CDK17/Y Inhibition at 10µM (%) (CDK17/Cyclin Y; independent experiment 2): 18.1%
- CDK18/Y Inhibition at 10µM (%) (CDK18/Cyclin Y; average of experiments): 28.3%
- CDK18/Y Inhibition at 10µM (%) (CDK18/Cyclin Y; independent experiment 1): 21.8%
- CDK18/Y Inhibition at 10µM (%) (CDK18/Cyclin Y; independent experiment 2): 34.7%
- CDK20/H Inhibition at 10µM (%) (CDK20/Cyclin H; independent experiment 1): 1.2%
- CDK20/H Inhibition at 10µM (%) (CDK20/Cyclin H; independent experiment 2): 0.755%
- CDK19/C Inhibition at 10µM (%) (CDK19/Cyclin C; average of experiments): 90.8%
- CDK19/C Inhibition at 10µM (%) (CDK19/Cyclin C; independent experiment 1): 91.1%
- CDK19/C Inhibition at 10µM (%) (CDK19/Cyclin C; independent experiment 2): 90.5%
- CDK10/L2 Inhibition at 10µM (%) (CDK10/Cyclin L2; average of experiments): 11.0%
- CDK10/L2 Inhibition at 10µM (%) (CDK10/Cyclin L2; independent experiment 1): 18.5%
- CDK10/L2 Inhibition at 10µM (%) (CDK10/Cyclin L2; independent experiment 2): 3.5%
